Patent publication US20170275650A1, “ENDOSOMAL ESCAPE DOMAINS FOR […] OF MACR[…] CELLS” (priority 2014, published 2017)
“Also recorded” adds a separate entry of the source. Where a SMILES comes first, the peptide text is derived from it. Bridges are numbered along the chain shown (N, C = ends). Roman numbers before positions name the chains, in order. Where no end group is shown, it is not given here.

Key:
[1] = test system: GFPβ1-10 expressing H1299c#G3 cells; assay type: cell-based, human; conditions: FACS FSC/SSC and viable cell number relative to untreated control cells
From the text: Cell morphology and cell viability.

[2] = test system: GFPβ1-10 expressing H1299c#G3 cells; experiment: split GFP fluorescence complementation transduction assay (FACS); assay type: cell-based, human; conditions: for GFP fluorescence / transduction compared to parental GFPβ11-(S-S)-TAT: dose-dependent comparison, up to 60 μM, FACS (FIG. 4, 5); for GFP fluorescence, head-to-head comparison of PTD/CPP delivery domains: 30 μM GFPβ11-(S-S)-PTD/CPP peptide, FACS (FIG. 3B, C); for escape efficiency compared to the six PEG unit (P6) spacer: GFPβ11-(S-S)-TAT-PEG(n)-GWWG series (FIG. 4)
Experimental: Peptide transduction. All transduction experiments were performed in 48-well plates. An optimized protocol was established. First, 15,000 or 20,000 cells were plated in each well. Next day, the indicated peptides were pipetted into eppendorf tubes. Transduction buffer (60% OptiMEM and 40% PBS) was added to peptide (100 μl total volume), directly mixed by pipetting up and down five times and then immediately transferred to cells. All pipetting steps were done in a laminar flow cell culture hood and standardized to 15 min for each plate before transferring the plate of cells to a 37° C. CO2 incubator for 1.5 h before addition of 500 μl DMEM supplemented with 10% FBS and another incubation round for 3.5 h in the 37° C. CO2 incubator (alternatively cells were incubated 2 h with peptides and another 4 h with DMEM, 10% FBS (FIG. 8b, c, d). For the transduction time-course, cells were incubated with peptides in transduction buffer until indicated time-points. All cells were trypzinized and collected in 250 μl OptiMEM without phenol red and analyzed by FACS (GFP, FSC/SSC). 4000 viable cells were analyzed per sample. Data is presented as fold change in fluorescence compared to non-treated cells.
To address these problems, the disclosure provides a self-assembling, bimolecular or split GFP fluorescence complementation system that was originally designed to tag and monitor proteins. GFP is composed of 11 β-strands that form a barrel structure allowing for peptidyl backbone cyclization and formation of a fluorescent chromophore. […] Importantly, co-incubation of GFPβ1-10 with the GFPβ11 peptide in trans efficiently reconstitutes GFP fluorescent chromophore bond and GFP fluorescence (FIG. 1a). To study PTD-mediated delivery, cell lines were generated that constitutively expressed the non-fluorescent GFPβ1-10 fragment and treated them in trans with a GFPβ11-PTD/CPP peptide to restore GFP fluorescence.
Cell clones of various human cell lines constitutively expressing the non-fluorescent large GFPβ1-10 fragment, including H1299 non-small cell lung carcinoma, HaCaT immortalized keratinocytes, and MDA-MB-231 and MCF7 breast carcinomas, and assayed for reconstituted intracellular GFP fluorescence after treatment with transducible GFPβ11-PTD/CPP peptides by FACS (FIG. 1a). Starting with human H1299 cells, known to be a good model for PTD/CPP-mediated uptake, two GFPβ1-10 expressing clones were generated (c#G3 and c#G4) (FIG. 8a). GFPβ1-10 expressing H1299c#G3 cells were treated for 1.5 h with increasing amounts of transducible GFPβ11-TAT peptide (0-60 μM), followed by an additional 3.5 h in DMEM supplemented with 10% FBS. At 5 h post-addition of GFPβ11-TAT peptide, cells were trypsinized and live cell assayed by FACS.

CC[C@H](C)[C@H](NC(=O)CNC(=O)[C@H](C)NC(=O)[C@H](C)NC(=O)[C@H](CC(N)=O)NC(=O)[C@@H](NC(=O)[C@H](Cc1ccc(O)cc1)NC(=O)[C@H](CCC(=O)O)NC(=O)[C@H](Cc1c[nH]cn1)NC(=O)[C@H](CC(C)C)NC(=O)[C@@H](NC(=O)[C@H](CCSC)NC(=O)[C@H](Cc1c[nH]cn1)NC(=O)[C@H](CC(=O)O)NC(=O)[C@@H](N)CCCNC(=N)N)C(C)C)C(C)C)C(=O)N[C@H](C(=O)NCC(=O)NCC(=O)N[C@@H](CO)C(=O)NCC(=O)NCC(=O)N[C@@H](CSSC[C@H](N)C(=O)NCC(=O)NCC(=O)N[C@@H](CCCNC(=N)N)C(=O)N[C@@H](CCCCN)C(=O)N[C@@H](CCCCN)C(=O)N[C@@H](CCCNC(=N)N)C(=O)N[C@@H](CCCNC(=N)N)C(=O)N[C@@H](CCC(N)=O)C(=O)N[C@@H](CCCNC(=N)N)C(=O)N[C@@H](CCCNC(=N)N)C(=O)N[C@@H](CCCNC(=N)N)C(=O)NCC(=O)N[C@@H](Cc1c[nH]c2ccccc12)C(=O)N[C@@H](Cc1c[nH]c2ccccc12)C(=O)NCC(N)=O)C(N)=O)[C@@H](C)O [GFPβ11-(S-S)-TAT-WW] (I: H-RDHMVLHEYVNAAGITGGSGGC-NH2 / II: H-CGGRKKRRQRRRGWWG-NH2; disulfide I:22-II:1)
cytotoxicity / morphological changes [1]: severely increased cytotoxicity

CC[C@H](C)[C@H](NC(=O)CNC(=O)[C@H](C)NC(=O)[C@H](C)NC(=O)[C@H](CC(N)=O)NC(=O)[C@@H](NC(=O)[C@H](Cc1ccc(O)cc1)NC(=O)[C@H](CCC(=O)O)NC(=O)[C@H](Cc1c[nH]cn1)NC(=O)[C@H](CC(C)C)NC(=O)[C@@H](NC(=O)[C@H](CCSC)NC(=O)[C@H](Cc1c[nH]cn1)NC(=O)[C@H](CC(=O)O)NC(=O)[C@@H](N)CCCNC(=N)N)C(C)C)C(C)C)C(=O)N[C@H](C(=O)NCC(=O)NCC(=O)N[C@@H](CO)C(=O)NCC(=O)NCC(=O)N[C@@H](CSSC[C@H](N)C(=O)NCC(=O)NCC(=O)N[C@@H](CCCNC(=N)N)C(=O)N[C@@H](CCCCN)C(=O)N[C@@H](CCCCN)C(=O)N[C@@H](CCCNC(=N)N)C(=O)N[C@@H](CCCNC(=N)N)C(=O)N[C@@H](CCC(N)=O)C(=O)N[C@@H](CCCNC(=N)N)C(=O)N[C@@H](CCCNC(=N)N)C(=O)N[C@@H](CCCNC(=N)N)C(N)=O)C(N)=O)[C@@H](C)O [GFPβ11-(S-S)-TAT]
cytotoxicity / morphological changes [1]: absence of cytotoxicity

CC[C@H](C)[C@H](NC(=O)CNC(=O)[C@H](C)NC(=O)[C@H](C)NC(=O)[C@H](CC(N)=O)NC(=O)[C@@H](NC(=O)[C@H](Cc1ccc(O)cc1)NC(=O)[C@H](CCC(=O)O)NC(=O)[C@H](Cc1c[nH]cn1)NC(=O)[C@H](CC(C)C)NC(=O)[C@@H](NC(=O)[C@H](CCSC)NC(=O)[C@H](Cc1c[nH]cn1)NC(=O)[C@H](CC(=O)O)NC(=O)[C@@H](N)CCCNC(=N)N)C(C)C)C(C)C)C(=O)N[C@H](C(=O)NCC(=O)NCC(=O)N[C@@H](CO)C(=O)NCC(=O)NCC(=O)N[C@@H](CSSC[C@H](N)C(=O)NCC(=O)NCC(=O)N[C@@H](C)C(=O)NCC(=O)N[C@@H](Cc1ccc(O)cc1)C(=O)N[C@@H](CC(C)C)C(=O)N[C@@H](CC(C)C)C(=O)NCC(=O)N[C@@H](CCCCN)C(=O)N[C@H](C(=O)N[C@@H](CC(N)=O)C(=O)N[C@@H](CC(C)C)C(=O)N[C@@H](CCCCN)C(=O)N[C@@H](C)C(=O)N[C@@H](CC(C)C)C(=O)N[C@@H](C)C(=O)N[C@@H](C)C(=O)N[C@@H](CC(C)C)C(=O)N[C@@H](C)C(=O)N[C@@H](CCCCN)C(=O)N[C@@H](CCCCN)C(=O)N[C@H](C(=O)N[C@@H](CC(C)C)C(N)=O)[C@@H](C)CC)[C@@H](C)CC)C(N)=O)[C@@H](C)O [GFPβ11-(S-S)-TP10]
cytotoxicity / morphological changes [1]: very high level of cytotoxicity; also recorded: high toxicity

CC[C@H](C)[C@H](NC(=O)CNC(=O)[C@H](C)NC(=O)[C@H](C)NC(=O)[C@H](CC(N)=O)NC(=O)[C@@H](NC(=O)[C@H](Cc1ccc(O)cc1)NC(=O)[C@H](CCC(=O)O)NC(=O)[C@H](Cc1c[nH]cn1)NC(=O)[C@H](CC(C)C)NC(=O)[C@@H](NC(=O)[C@H](CCSC)NC(=O)[C@H](Cc1c[nH]cn1)NC(=O)[C@H](CC(=O)O)NC(=O)[C@@H](N)CCCNC(=N)N)C(C)C)C(C)C)C(=O)N[C@H](C(=O)NCC(=O)NCC(=O)N[C@@H](CO)C(=O)NCC(=O)NCC(=O)N[C@@H](CCCNC(=N)N)C(=O)N[C@@H](CCCCN)C(=O)N[C@@H](CCCCN)C(=O)N[C@@H](CCCNC(=N)N)C(=O)N[C@@H](CCCNC(=N)N)C(=O)N[C@@H](CCC(N)=O)C(=O)N[C@@H](CCCNC(=N)N)C(=O)N[C@@H](CCCNC(=N)N)C(=O)N[C@@H](CCCNC(=N)N)C(N)=O)[C@@H](C)O [GFPβ11-TAT] (H-RDHMVLHEYVNAAGITGGSGGRKKRRQRRR-NH2)
cytotoxicity / morphological changes [1]: did not display any cytotoxicity or morphological changes

RDHMVLHEYVNAAGIT-GGSGGC-(5-5)-CGG-RKKRRQRRR-(PEG)6-GWG [GFPβ11-(S-S)-TAT-P6-GWG]
GFP fluorescence / transduction compared to parental GFPβ11-(S-S)-TAT [2]: no net effect

RDHMVLHEYVNAAGIT-GGSGGC-(S-S)-CGG-GALFLGFLGAAGSTMGAWSQPKKKRKV (chain 1 RDHMVLHEYVNAAGITGGSGGC; chain 2 CGGGALFLGFLGAAGSTMGAWSQPKKKRKV; also: disulfide to a chain's N/C-terminus) [GFPβ11-(S-S)-MPG]
GFP fluorescence, head-to-head comparison of PTD/CPP delivery domains [2]: only slightly above background

RDHMVLHEYVNAAGIT-GGSGGC-(S-S)-CGG-KKKKKKKK (chain 1 RDHMVLHEYVNAAGITGGSGGC; chain 2 CGGKKKKKKKK; also: disulfide to a chain's N/C-terminus) [GFPβ11-(S-S)-8xLys]
GFP fluorescence, head-to-head comparison of PTD/CPP delivery domains [2]: failed to induce GFP fluorescence to any high degree
GFP fluorescence after addition of Chloroquine ([2]; 30 μM peptide plus 100 μM Chloroquine (FIG. 3C)): failed to induce GFP fluorescence to any high degree

RDHMVLHEYVNAAGIT-GGSGGC-(S-S)-CGG-LLIILRRRIRKQAHAHSK [GFPβ11-(S-S)-pVEC]
GFP fluorescence, head-to-head comparison of PTD/CPP delivery domains [2]: only slightly above background

RDHMVLHEYVNAAGIT-GGSGGC-(S-S)-CGG-RKKRRQRRR-(PEG)6-GFFG (disulfide bond, (PEG)6-GFFG) [GFPβ11-(S-S)-TAT-P6-GFFG]
GFP fluorescence / transduction compared to parental GFPβ11-(S-S)-TAT [2]: no net effect

RDHMVLHEYVNAAGIT-GGSGGC-(S-S)-CGG-RKKRRQRRR-(PEG)6-GFWG [GFPβ11-(S-S)-TAT-P6-GFWG]
GFP fluorescence / transduction compared to parental GFPβ11-(S-S)-TAT [2]: two-fold increase

RDHMVLHEYVNAAGIT-GGSGGC-(S-S)-CGG-RKKRRQRRR-(PEG)6-GG [GFPβ11-(S-S)-TAT-P6-GG]
GFP fluorescence / transduction compared to parental GFPβ11-(S-S)-TAT [2]: lower uptake than GFPβ11-(S-S)-TAT peptide

RDHMVLHEYVNAAGIT-GGSGGC-(S-S)-CGG-RKKRRQRRR-(PEG)6-GWGGWG [GFPβ11-(S-S)-TAT-P6-WGGW]
enhancement compared to the -GWWG motif ([2]; PEG6-spaced EED peptides (FIG. 5A-D)): decreased the enhancement approximately two-fold

RDHMVLHEYVNAAGIT-GGSGGC-(S-S)-CGG-RKKRRQRRR-(PEG)6-GWWG [GFPβ11-(S-S)-TAT-P6-GWWG]
GFP fluorescence / transduction compared to parental GFPβ11-(S-S)-TAT [2]: retained enhanced cytoplasmic delivery; also recorded: four-fold increase

RDHMVLHEYVNAAGIT-GGSGGC-(S-S)-CGG-RKKRRQRRR-(PEG)12-GWWG (disulfide bond, (PEG)12-GWWG) [GFPβ11-(S-S)-TAT-P12-WW]
escape efficiency compared to the six PEG unit (P6) spacer [2]: lower escape efficiency

RDHMVLHEYVNAAGIT-GGSGGC-(S-S)-CGG-RKKRRQRRR-(PEG)18-GWWG (disulfide bond, (PEG)18-GWWG) [GFPβ11-(S-S)-TAT-P18-WW]
escape efficiency compared to the six PEG unit (P6) spacer [2]: lower escape efficiency
GFP fluorescence / transduction compared to parental GFPβ11-(S-S)-TAT [2]: reduced GFPβ11 delivery below that of the control GFPβ11-(S-S)-TAT

RDHMVLHEYVNAAGIT-GGSGGC-(S-S)-CGG-RRRRRRRR (chain 1 RDHMVLHEYVNAAGITGGSGGC; chain 2 CGGRRRRRRRR; also: disulfide to a chain's N/C-terminus) [GFPβ11-(S-S)-8xArg]
GFP fluorescence, head-to-head comparison of PTD/CPP delivery domains [2]: significantly better uptake
